Results as given in patent US11091460B2, “Syk inhibitor and use method therefor” (CHIA TAI TIANQING PHARMACEUTICAL GROUP CO., LTD., priority 2017, dated 2021).
Where two headings read alike, the source gives them in different places.

Columns and labels:
[1] = target: T1, SYK kinase (Homo sapiens, UniProt P43405); test: In vitro test of the inhibition effect on SYK kinase (HTRF); type: biochemical; settings: tyrosine kinase 0.0156 ng/μL, substrate 0.2 uM, ATP 2 uM, 23° C. 1 hour, read-out: Inhibit SYK kinase IC50
T1 construct: purchased Invitrogen PV3857
Experimental: Experimental Example 1: In Vitro Test of the Inhibition Effect of the Example Compounds on SYK Kinase
Adenosine triphosphate concentration was controlled at 2 uM. • 4) Loaded with a Multidrop automatic dispenser, and a mixture of tyrosinase solution and tyrosine kinase-substrate-biotin/adenosine triphosphate was added in an amount of 5 ul per well, and incubated at 23° C. for 1 hour. • c) Detection phase: • 1) Added 13.33 mL of ethylenediaminetetraacetic acid solution to the Detection Buffer in the kit, added the specified amount of […] (Eu)-labeled antibody and streptavidin XL-665, and prepared the detection solution. • 2) Loaded with a Multidrop automatic dispenser, and 10 uL of the detection solution per well, incubated at 23° C. for 1 hour. It terminated the reaction of the enzyme and substrate mixture. • 3) Reading after centrifugation on a multi-function microplate reader, • d) Data Analysis: Analyzed the data with XL-Fit, and calculated the IC50 value of the compound.

[2] = tested on: AKT phosphorylation; test: In vitro test of the inhibition effect on AKT phosphorylation (ELISA, Ramos cells); type: cell-based
Experimental: Experimental Example 2: In Vitro Test of the Inhibition Effect of the Example Compounds on AKT Phosphorylation
• 2.1 Experimental Purpose: Intracellular protein kinase AKT phosphorylation detected by experiment was measured by enzyme-linked immunosorbent assay (ELISA), and the inhibition of the compound on protein kinase AKT phosphorylation was evaluated by an index of the half-cell inhibition concentration (IC50) value of the compound. • 2.2 Experimental Materials: • Cell line: Ramos cell line • Cell culture medium (RPMI1640, Invitrogen #22400-105; 10% serum Gibco #10099-141; L-glutamine 1×, Gibco #25030-081) • Experimental medium (without serum, RPM11640, Invitrogen #22400-105; L-glutamine 1×, Gibco #25030) • Lysis buffer (trishydroxymethylaminomethane hydrochloride, Invitrogen15567-1000 ml; sodium chloride, domestic; sodium deoxycholate, Sigma30970-25 G; polyethylene glycol octylphenyl ether, SigmaT9284-100 ml; dodecane sodium sulfonate, SigmaL3771; ethylenediaminetetraacetic acid, Invitrogen15575-038-100 ml; ultrapure water, MilliQ) • Protease inhibitor (Roche, 4693159001-30/BOX) • Phosphatase inhibitor mixture 2 (Sigma, P5726-5 ML) • Phosphatase inhibitor mixture 3 (Sigma, P0044-5 ML) • Goat Anti-Human immunoglobulin M (F(ab′)2 Goat Anti-Human IgM) (Jackson Immuno Research-109-006-129) • Phosphorylated AKT assay kit (Phospho-AKT 1/2/3 (ser473)) (TGR Bioscience, EKT002) • 10× Hank's balanced salt solution (Gibco #14065-056) • 96-well cell plate (Greiner #655090) • Compound V-well dilution plate (Axygen #WITP02280) • CO2 incubator (Thermo #371) • Centrifuge (Eppendorf #581 OR) • Vi-cell cell counter (Beckman Coulter) • Pipette (Eppendorf) • Pipette (Greiner) • Pipetting gun (Eppendorf) • Multi-purpose microplate reader (Envision Reader) • 2.3 Experimental procedures and methods: • a) Cell Seeding (Ramos Cells) • 1) The medium was preheated in a 37° C. water bath. Suspended cells and their culture solution were aspirated, centrifuged at 1000 rpm for 5 minutes. • 2) Aspirated the cell culture medium, added 10 mL of pre-warmed medium to the centrifuge tube, blew off the resuspended cells, pipette 1 mL of the cell suspension, and counted with Vi-cell; • 3) The Ramos cells were diluted with a medium to a density of 5×10^6/mL, and the diluted cells were added to a 96-well cell culture plate (100 μL/well) using a lance. Placed the cell plates in a 37° C., 5% CO2 incubator for overnight. • b) Cell starvation: • 1) After cultured the inoculation cells for overnight, centrifuged at 1000 rpm for 5 minutes on the next day, aspirated the original medium by a lance, added serum-free experimental medium, placed the cell plates in a 37° C., 5% CO2 incubator, and starved for overnight. • c) Compound preparation and dosing: • 1) The compound was diluted with dimethyl sulfoxide to give an initial concentration of 5 mM. A triple gradient dilution was done with compound V dilution plate to make 10 concentration points. • 2) Took another new compound V-well dilution plate, added 198 ul of serum-free experimental medium to each well, and then added 2 ul of the diluted compound above to each well, and mixed with a lance. […]

[3] = Homo sapiens, Ramos, Ramos cell line, compound 1 hour, goat anti-human IgM 10 ug/ml for 10 minutes, Phospho-AKT 1/2/3 (ser473) ELISA, read-out: Inhibit AKT phosphorylation IC50
[4] = Ramos cell line, compound 1 hour, goat anti-human IgM 10 ug/ml for 10 minutes, Phospho-AKT 1/2/3 (ser473) ELISA, read-out: Inhibit AKT phosphorylation IC50

Row | IC50 [1] | IC50 [2, 3] | IC50 [2, 4] | SMILES | IC50 ([2]; Homo sapiens, Ramos, read-out: Inhibit AKT phosphorylation IC50 (nM))
1 | 30 nM | 343 nM |  | Cn1c(=O)c(Nc2ccc(N3CCC(O)(C(F)(F)F)CC3)cn2)cc2c(F)c(-c3cc[nH]n3)ccc21 [Example 10, 5-Fluoro-3-[[5-[4-hydroxy-4-(trifluoromethyl)piperidin-1-yl]pyridin-2-yl]amino]-1-methyl-6-(1H-pyrazol-3-yl)quinoline-2(1H)-one] | 
2 | 10.3 nM | 211 nM |  | Cn1c(=O)c(Nc2ccc(N3CCOCC3)cn2)cc2c(Cl)c(-c3cc[nH]n3)ccc21 [Example 7, 5-Chloro-1-methyl-3-((5-morpholinepyridin-2-yl)amino)-6-(1H-pyrazol-3-yl)quinoline-2(1H)-one] | 
3 | 40.7 nM | 323 nM |  | Cn1c(=O)c(Nc2ccc(C3CCOCC3)cn2)cc2cc(-c3cc[nH]n3)ccc21 [Example 3] | 
4 | 114 nM | 750 nM |  | Cn1c(=O)c(Nc2ccc(N3CCC4(CC3)COC4)cn2)cc2c(F)c(-c3cc[nH]n3)ccc21 [Example 12, 5-Fluoro-1-methyl-3-[[5-(2-oxazole-7-azaspiro[3.5]nonane-7-yl)pyridin-2-yl]amino]-6-(1H-pyrazol-3)quinoline-2(1H)-one] | 
5 | 12 nM | 170 nM |  | Cn1c(=O)c(Nc2ccc(N3CCN(C4COC4)CC3)cn2)cc2c(F)c(-c3cc[nH]n3)ccc21 [Example 9, 5-Fluoro-1-methyl-3-((5-(4-(oxetan-3-yl)piperazin-1-yl)pyridin-2-yl)amino)-6-(1H-pyrazol-3-yl)quinoline-2(1H)-one] | 
6 | 4.4 nM | 97 nM |  | Cn1c(=O)c(Nc2ccc(N3CCOCC3)cc2)nc2c(F)cc(-c3cn[nH]c3)cc21 [Example 44] | 
7 | 204 nM |  | 750 nM | Cn1c(=O)c(Nc2ccc(N3CCOCC3)cn2)cc2cc(-c3cc[nH]n3)ccc21 [Example 2, 1-Methyl-3-((5-morpholinepyridin-2-yl)amino)-6-(1H-pyrazol-3-yl)quinoline-2(1H)-one] | 
8 | 61 nM | 233 nM |  | Cc1[nH]ncc1-c1ccc2nc(Nc3ccc(N4CCOCC4)cc3)c(=O)n(C)c2c1 [Example 29, 1-Methyl-7-(5-methyl-1H-pyrazol-4-yl)-3-((4-morpholinephenyl)amino)quinoxaline-2(1H)-one] | 
9 | 34.3 nM | 585 nM |  | Cn1c(=O)c(Nc2ccc(N3CCN(C4COC4)CC3)cn2)cc2cc(-c3cc[nH]n3)ccc21 [Example 4, 1-Methyl-3-[[5-(4-(oxetan-3-yl)piperazin-1-yl]pyridin-2-yl]amino]-6-(1H-pyrazol-3-yl)quinoline-2(1H)-one] | 
10 | 9.5 nM | 114 nM |  | Cn1c(=O)c(Nc2ccc(N3CCOCC3)cc2)nc2ccc(-c3cn[nH]c3)c(F)c21 [Example 46, 8-Fluoro-1-methyl-3-((4-morpholinephenyl)amino)-7-(1H-pyrazol-4-yl)quinoxaline-2(1H)-one] | 
11 | 14.3 nM | 388 nM |  | Cn1c(=O)c(Nc2ccc(N3CCC[C@H](C(=O)O)C3)cn2)cc2c(F)c(-c3cc[nH]n3)ccc21 [Example 19, (3S)-1-[6-[[5-fluoro-1-methyl-2-oxa-6-(1H-pyrazol-3-yl)-1,2-dihydroquinolin-3-yl)amine]pyridin-3-yl]piperidine-3-carboxylic acid] | 
12 | 5.1 nM | 52.2 nM |  | Cn1c(=O)c(Nc2ccc(N3CCS(=O)(=O)CC3)cc2)nc2ccc(-c3cn[nH]c3)cc21 [Example 35, 3-((4-(1,1-Dioxothiomorpholine)phenyl)amino)-1-methyl-7-(1H-pyrazol-4-yl)quinoxaline-2(1H)-one] | 
13 | 46 nM | 248 nM |  | Cn1c(=O)c(Nc2ccc(N3CCOCC3)cc2)nc2ccc(-c3csc(N)n3)cc21 [Example 59, 7-(2-Aminothiazol-4-yl)-1-methyl-3-((4-morpholinephenyl)amino)quinoxaline-2(1H)-one] | 
14 | 40 nM | 343 nM |  | Cn1c(=O)c(Nc2ccc(S(=O)(=O)N3CCCCC3)cc2)nc2ccc(-c3cn[nH]c3)cc21 [Example 38, 1-Methyl-3-((4-(piperidin-1-ylsulfonyl)phenyl)amino)-7-(1H-pyrazol-4-yl)quinoxaline-2(1H)-one] | 
15 | 26 nM | 844 nM |  | Cn1c(=O)c(Nc2ccc(N3CCC[C@@H](C(=O)O)C3)cn2)cc2c(F)c(-c3cc[nH]n3)ccc21 [Example 18, (3R)-1-[6-[[5-fluoro-1-methyl-2-oxa-6-(1H-pyrazol-3-yl)-1,2-dihydroquinolin-3-yl)amino]pyridin-3-yl]piperidine-3-carboxylic acid] | 
16 | 4.2 nM | 50 nM |  | Cn1c(=O)c(Nc2ccc(N3CCOCC3)cc2)nc2ccc(-c3cn[nH]c3)cc21 [Example 26, 1-Methyl-3-((4-morpholinephenyl)amino)-7-(1H-pyrazol-4-yl)quinoxaline-2(1H)-one] | 
17 | 8.9 nM |  | 121 nM | Cn1c(=O)c(Nc2ccc(C(C)(O)C(F)(F)F)cn2)cc2c(F)c(-c3cc[nH]n3)ccc21 (single isomer, unassigned) [Example 25, 5-Fluoro-1-methyl-6-(1H-pyrazol-3-yl)-3-((5-(1,1,1-trifluoro-2-hydroxypropan-2-yl)pyridine-2-yl)amino)quinoline-2(1H)-one] | 
18 | 3.6 nM | 60.1 nM |  | Cn1c(=O)c(Nc2ccc(N3CCNCC3)cc2)nc2ccc(-c3cn[nH]c3)cc21 [Example 39, 1-Methyl-3-((4-(piperazin-1-yl)phenyl)amino)-7-(1H-pyrazol-4-yl)quinoxaline-2(1H)-one] | 
19 | 47.9 nM | 197 nM |  | Cn1c(=O)c(Nc2ccc(N)cn2)cc2c(F)c(-c3cc[nH]n3)ccc21 [Example 16, 3-((5-Aminopyridin-2-yl)amino)-5-fluoro-1-methyl-6-(1H-pyrazol-3-yl)quinoline-2(1H)-one] | 
20 | 54.6 nM | 188 nM |  | Cn1c(=O)c(Nc2ccc(N3CCOCC3)cn2)cc2c(F)c(-c3cc[nH]n3)c(F)cc21 [Example 8, 5,7-Difluoro-1-methyl-3-((5-morpholinopyridin-2-yl)amino)-6-(1H-pyrazol-3-yl)quinoline-2(1H)-one] | 
21 | 10.1 nM | 261 nM |  | CN1CCCN(c2ccc(Nc3nc4ccc(-c5cn[nH]c5)cc4n(C)c3=O)cc2)CC1 [Example 37, 1-Methyl-3-((4-(4-methyl-1,4-diazepan-1-yl)phenyl)amino)-7-(1H-pyrazol-4-yl)quinoxaline-2(1H)-one] | 
22 | 4.8 nM | 98.8 nM |  | Cn1c(=O)c(Nc2ccc(N3CCOCC3)cc2)nc2c(Cl)cc(-c3cn[nH]c3)cc21 [Example 41, 5-Chloro-1-methyl-3-((4-morpholinephenyl)amino)-7-(1H-pyrazol-4-yl)quinoxaline-2(1H)-one] | 

Row | SMILES | IC50 [1] | IC50 [2, 3] | IC50 [2, 4] | IC50 ([2]; Homo sapiens, Ramos, read-out: Inhibit AKT phosphorylation IC50 (nM))
23 | Cn1c(=O)c(Nc2ccc(N3CCOCC3)cc2)cc2cc(-c3cc[nH]n3)ccc21 [Example 1, 1-Methyl-3-((4-morpholinephenyl)amino)-6-(1H-pyrazol-3-yl) quinoline-2(1H)-one] | 33.8 nM |  | 248 nM | 
24 | Cn1c(=O)c(Nc2ccc(C3(O)CCC3)cn2)cc2c(F)c(-c3cc[nH]n3)ccc21 [Example 21] | 22 nM |  |  | 200 nM
